Several values for one entry are separate records, joined by “and”; a condition that tells them apart may be missing. Equal values may be shown once.
How the values were obtained:
[1] = biological target: T1, Phosphatidylinositol 4,5-bisphosphate 3-kinase catalytic subunit delta isoform (Homo sapiens, UniProt O00329); experiment: (§1) The final concentrations of ATP and phosphatidyl inositol in the assay are 5 μM and 6 μg/mL, respectively. The reaction is started by the addition of PI3 kinase, e.g. PI3 kinase 6.p110δ.The components of the assay are added per well as follows 10 μl test compound in 5% DMSO per well in columns 2-1. Total activity is determined by addition 10 μl of 5% vol/vol DMSO in the first 4 wells of column 1 and the last 4 wells of column 12. The background is determined by addition of 10 μM control compound to the last 4 wells of column 1 and the first 4 wells of column 12. 2 mL Assay mix are prepared per plate 1.912 mL of HEPES assay buffer 8.33 μl of 3 mM stock of ATP giving a final concentration of 5 μM per well 1 μl of [33P]ATP on the activity date giving 0.05 μCi per well 30 μl of 1 mg/mL PI stock giving a final concentration of 6 μg/mL per well 5 μl of 1 M stock MgCl2 giving a final concentration of 1 mM per well 20 μl of the assay mix are added per well. 2 mL Enzyme mix are prepared per plate (x* μl PI3 kinase p110(3 in 2 mL of kinase buffer). The Enzyme mix is kept on ice during addition to the assay plates. 20 μl ‘Enzyme mix’ are added/well to start the reaction. The plate is then incubated at room temperature for 90 minutes. The reaction is terminated by the addition of 50 μl WGA-SPA bead (wheat germ agglutinin-coated Scintillation Proximity Assay beads) suspension per well. The assay plate is sealed using TopSeal-S (heat seal for polystyrene microplates, PerkinElmer LAS [Deutschland] GmbH, Rodgau, Germany) and incubated at room temperature for at least 60 minutes. The assay plate is then centrifuged at 1500 rpm for 2 minutes using the Jouan bench top centrifuge (Jouan Inc., Nantes, France). The assay plate is counted using a Packard TopCount, each well being counted for 20 seconds. The volume of enzyme is dependent on the enzymatic activity of the batch in use.In a more preferred assay, the kinase reaction is performed in a final volume of 10 μl per well of a low volume non-binding CORNING, 384 well black plate (Cat. No. #3676). The final concentrations of ATP and phosphatidyl inositol (PI) in the assay are 1 μM and 10 μg/mL, respectively. The reaction is started by the addition of ATP.The components of the assay are added per well as follows:50 nl test compounds in 90% DMSO per well, in columns 1-20, 8 concentrations (⅓ and 1/3.33 serial dilution step) in single. Low control: 50 nl of 90% DMSO in half the wells of columns 23-24 (0.45% in final). High control: 50 nl of reference compound (e.g. compound of Example 7 in WO 2006/122806) in the other half of columns 23-24 (2.5 μM in final). Standard: 50 nl of reference compound as just mentioned diluted as the test compounds in columns 21-22. 20 mL buffer are prepared per assay 200 μl of 1M TRIS HCl pH7.5 (10 mM in final) 60 μl of 1M MgCl2 (3 mM in final) 500 μl of 2M NaCl (50 mM in final) 100 μl of 10% CHAPS (0.05% in final) 200 μl of 100 mM DTT (1 mM in final) 18.94 mL of nanopure water 10 mL PI are prepared per assay 200 μl of 1 mg/mL 1-alpha-Phosphatidylinositol (Liver Bovine, Avanti Polar Lipids Cat. No. 840042C MW=909.12) prepared in 3% OctylGlucoside (10 μg/mL in final) 9.8 mL of buffer 10 mL ATP are prepared per assay.
T1 sequence (O00329 whole entry): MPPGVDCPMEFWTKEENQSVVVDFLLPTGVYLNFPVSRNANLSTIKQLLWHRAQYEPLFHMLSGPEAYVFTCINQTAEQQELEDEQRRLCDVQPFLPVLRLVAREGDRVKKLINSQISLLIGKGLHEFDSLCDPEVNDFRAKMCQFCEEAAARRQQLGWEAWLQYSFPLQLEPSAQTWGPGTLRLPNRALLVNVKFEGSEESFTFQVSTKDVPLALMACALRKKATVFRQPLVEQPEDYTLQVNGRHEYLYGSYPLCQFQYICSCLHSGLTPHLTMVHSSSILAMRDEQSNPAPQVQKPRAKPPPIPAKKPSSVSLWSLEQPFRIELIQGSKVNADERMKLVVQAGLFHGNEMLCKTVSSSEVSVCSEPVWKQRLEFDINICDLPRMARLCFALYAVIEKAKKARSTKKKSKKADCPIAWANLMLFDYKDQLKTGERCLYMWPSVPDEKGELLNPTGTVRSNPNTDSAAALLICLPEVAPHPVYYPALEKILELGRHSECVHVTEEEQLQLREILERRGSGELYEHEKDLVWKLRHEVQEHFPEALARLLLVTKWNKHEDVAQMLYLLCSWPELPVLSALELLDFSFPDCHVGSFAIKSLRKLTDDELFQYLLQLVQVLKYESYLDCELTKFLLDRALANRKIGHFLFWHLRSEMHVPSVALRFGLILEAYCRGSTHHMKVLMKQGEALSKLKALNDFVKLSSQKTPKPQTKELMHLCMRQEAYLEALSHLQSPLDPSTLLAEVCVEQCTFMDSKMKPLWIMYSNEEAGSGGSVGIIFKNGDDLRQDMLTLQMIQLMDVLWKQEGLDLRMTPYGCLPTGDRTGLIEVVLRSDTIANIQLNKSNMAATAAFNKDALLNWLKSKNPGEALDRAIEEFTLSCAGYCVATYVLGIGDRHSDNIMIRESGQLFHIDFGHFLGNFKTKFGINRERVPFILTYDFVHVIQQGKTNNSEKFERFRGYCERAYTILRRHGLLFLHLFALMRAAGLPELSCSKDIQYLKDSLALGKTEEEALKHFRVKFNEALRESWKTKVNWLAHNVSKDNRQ

[2] = biological target: Phosphatidylinositol 4,5-bisphosphate 3-kinase catalytic subunit alpha isoform (Homo sapiens, UniProt P42336); experiment: as §1
Phosphatidylinositol 4,5-bisphosphate 3-kinase catalytic subunit alpha isoform, sequence (P42336 whole entry, canonical isoform): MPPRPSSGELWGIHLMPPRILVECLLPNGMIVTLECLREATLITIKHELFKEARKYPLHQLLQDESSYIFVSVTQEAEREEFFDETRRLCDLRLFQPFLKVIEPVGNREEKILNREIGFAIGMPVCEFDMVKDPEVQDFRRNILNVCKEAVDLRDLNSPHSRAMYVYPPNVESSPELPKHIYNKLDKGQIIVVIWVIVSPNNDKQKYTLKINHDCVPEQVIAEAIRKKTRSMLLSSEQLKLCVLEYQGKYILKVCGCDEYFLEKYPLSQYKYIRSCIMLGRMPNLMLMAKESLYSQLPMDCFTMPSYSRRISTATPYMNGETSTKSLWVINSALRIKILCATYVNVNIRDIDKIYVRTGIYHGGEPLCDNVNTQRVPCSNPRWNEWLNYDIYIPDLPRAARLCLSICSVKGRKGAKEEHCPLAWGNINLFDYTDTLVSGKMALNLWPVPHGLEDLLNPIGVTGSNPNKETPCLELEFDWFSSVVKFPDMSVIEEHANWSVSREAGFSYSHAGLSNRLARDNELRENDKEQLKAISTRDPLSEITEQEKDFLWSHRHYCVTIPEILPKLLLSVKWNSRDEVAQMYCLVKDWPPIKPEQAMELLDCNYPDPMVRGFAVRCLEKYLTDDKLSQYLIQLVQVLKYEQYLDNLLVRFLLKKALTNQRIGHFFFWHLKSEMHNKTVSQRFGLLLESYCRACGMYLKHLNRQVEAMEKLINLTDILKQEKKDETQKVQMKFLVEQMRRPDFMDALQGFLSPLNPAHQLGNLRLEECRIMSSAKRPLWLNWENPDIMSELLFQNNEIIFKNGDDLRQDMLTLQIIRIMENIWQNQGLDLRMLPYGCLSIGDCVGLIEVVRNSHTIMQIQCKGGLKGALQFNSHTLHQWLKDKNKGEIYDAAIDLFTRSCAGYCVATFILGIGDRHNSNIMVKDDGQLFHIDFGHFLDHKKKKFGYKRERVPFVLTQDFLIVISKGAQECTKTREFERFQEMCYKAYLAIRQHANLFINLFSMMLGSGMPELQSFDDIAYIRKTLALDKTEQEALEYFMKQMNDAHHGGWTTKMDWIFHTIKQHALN

Row | IC50 [1] | IC50 [2] | SMILES
1 | 35 nM | 870 nM | COc1cc(N2CCOc3ccc(O[C@H]4CCN(C(=O)C5CCC(F)(F)CC5)C4)cc32)cnc1S(C)(=O)=O
2 | 35 nM | 795 nM | Cc1cc(N2CCOc3ccc(O[C@H]4CCN(C(=O)c5ccc(=O)[nH]c5)C4)cc32)cnc1Cl
3 | 10.2 nM | 209 nM | COc1ncc(N2CCOc3ccc(O[C@H]4CCN(C(=O)c5cn(C)cn5)C4)cc32)cc1F
4 | 32 nM | 193 nM | Cc1cc(N2CCOc3ccc(O[C@H]4CCN(C(=O)c5cn(C)cn5)C4)cc32)cnc1Cl
5 | 9 nM | 377 nM | O=C(C1CCOCC1)N1CC[C@H](Oc2ccc3c(c2)N(c2cncc(C(F)(F)F)c2)CCO3)C1
6 | 37 nM | 4660 nM | Cc1ccc(N2CCOc3ccc(O[C@H]4CCN(C(=O)C5CCOCC5)C4)cc32)cn1
7 | 10 nM | 870 nM | Cc1cc(N2CCOc3cnc(O[C@H]4CCN(C(=O)C5CCS(=O)(=O)CC5)C4)cc32)cnc1OC(F)F
8 | 3 nM | 313 nM | O=C(C1CCOCC1)N1CC[C@H](Oc2ccc3c(c2)N(c2cncc(S(=O)(=O)N4CCOCC4)c2)CCO3)C1
9 | 110 nM | 2240 nM | CC(C)S(=O)(=O)c1cncc(N2CCOc3ccc(O[C@H]4CCN(C(=O)C5CCOCC5)C4)cc32)c1
10 | 11 nM | 463 nM | COc1ncc(N2CCOc3ccc(O[C@H]4CCN(C(=O)C(C)C)C4)cc32)cc1C#N
11 | 41 nM | 496 nM | COc1cc(N2CCOc3ccc(O[C@H]4CCN(C(=O)c5cn(C)cn5)C4)cc32)cnc1Cl
12 | 5 nM and 7 nM | 703 nM and 521 nM | COc1cc(N2CCOc3ccc(O[C@H]4CCN(C(=O)C5CCCO5)C4)cc32)cnc1OC (single isomer, unassigned)

From ChEMBL document CHEMBL5725430, “Dihydro-benzo-oxazine and dihydro-pyrido-oxazine derivatives” (2017)
